EPA's ToxRefDB 2

Tests used:
dog [1] = conditions: Sub-acute repeat dose toxicity, beagle, Oral, Gavage/Intubation, dose end: 15 day, group: systemic
dog [2] = conditions: Sub-acute repeat dose toxicity, beagle, Oral, Gavage/Intubation, dose end: 5 day, group: systemic
rat [3] = conditions: Fertility (Segment I), sprague dawley, Oral, Gavage/Intubation, dose end: 1 generation, group: parental
rat [4] = conditions: Subchronic oral toxicity in rodents, sprague dawley, Gavage/Intubation, dose end: 90 day, group: systemic
dog [5] = conditions: Subchronic oral toxicity in nonrodent, beagle, Gavage/Intubation, dose end: 90 day, group: systemic, systemic / in life observation / clinical signs / emesis + systemic / in life observation / clinical signs / erythema + systemic / in life …
rat [6] = conditions: Prenatal developmental toxicity study; sprague dawley; Oral; Gavage/Intubation; dose end: 18 GD; group: maternal; systemic / in life observation / body weight / body weight + systemic / in life observation / body weight / body weight gain + systemic / in…
rat [7] = conditions: Sub-acute repeat dose toxicity, sprague dawley, Oral, Gavage/Intubation, dose end: 21 day, group: systemic
rat [8] = conditions: Fertility (Segment I), sprague dawley, Oral, Gavage/Intubation, dose end: 1 generation
rabbit [9] = conditions: Sub-acute repeat dose toxicity, new zealand white, Oral, Gavage/Intubation, dose end: 5 day, group: systemic
rabbit [10] = conditions: Prenatal developmental toxicity study, new zealand white, Oral, Gavage/Intubation, dose end: 19 GD, group: maternal
rat [11] = conditions: Sub-acute repeat dose toxicity, sprague dawley, Oral, Gavage/Intubation, dose end: 36 day, group: systemic
rabbit [12] = conditions: Prenatal developmental toxicity study, Oral, Gavage/Intubation, dose end: 19 GD
[13] = systemic / clinical chemistry / alanine aminotransferase (alt/sgpt) / alanine aminotransferase (alt/sgpt) + systemic / hematology / platelet…
[14] = systemic / in life observation / body weight / body weight + systemic / clinical chemistry / alanine aminotransferase (alt/sgpt) / alanine …
[15] = systemic / in life observation / body weight / body weight + systemic / in life observation / clinical signs / emesis + systemic / in life …
[16] = systemic / in life observation / clinical signs / salivation + systemic / in life observation / clinical signs / emesis
[17] = systemic / in life observation / body weight / body weight + systemic / in life observation / clinical signs / altered breathing rate + …
[18] = systemic / clinical chemistry / [other] / [other] + systemic / clinical chemistry / aspartate aminotransferase (ast/sgot) / aspartate …
[19] = systemic / organ weight / liver / absolute + systemic / in life observation / clinical signs / salivation
[20] = systemic / clinical chemistry / alanine aminotransferase (alt/sgpt) / alanine aminotransferase (alt/sgpt) + systemic / clinical chemistry / …
[21] = systemic / organ weight / liver / relative to body weight
[22] = group: maternal, reproductive / reproductive performance / estrous cycle / length
[23] = group: parental, systemic / in life observation / body weight / body weight + systemic / in life observation / clinical signs / [other] + systemic / in life …
[24] = group: parental, systemic / in life observation / clinical signs / altered breathing rate + systemic / in life observation / clinical signs / compulsive …
[25] = systemic / in life observation / body weight / body weight gain + systemic / in life observation / clinical signs / [other] + systemic / in …
[26] = systemic / in life observation / clinical signs / abnormal feces + systemic / in life observation / clinical signs / altered breathing rate
[27] = systemic / in life observation / clinical signs / dialated pupils + systemic / in life observation / food consumption / food consumption
[28] = systemic / in life observation / body weight / body weight gain + systemic / in life observation / body weight / offspring (pup) weight + …
[29] = group: developmental, systemic / in life observation / body weight / fetal weight
[30] = group: maternal, systemic / in life observation / body weight / body weight + systemic / in life observation / food consumption / food consumption + systemic…

`CNCc1cc(F)ccc1Oc1ccc(Cl)c(Cl)c1` showed an LOAEL (dog [1]; [13]) of over 60 mg/kg/day, an NOAEL (dog [1]; [13]) of at least 60 mg/kg/day and an LEL (dog [1]; [14]) of 3 mg/kg/day. The NEL (dog [1]; [14]) was under 3 mg/kg/day, the LOAEL (dog [2]; [15]) was over 10 mg/kg/day and the NOAEL (dog [2]; [15]) was at least 10 mg/kg/day. It also gave an LEL (dog [2]; [16]) of 3 mg/kg/day, an NEL (dog [2]; [16]) of under 3 mg/kg/day and an LOAEL (rat [3]; [17]) of over 100 mg/kg/day. It also gave an NEL (rat [3]; [17]) of 10 mg/kg/day, an NOAEL (rat [3]; [17]) of at least 100 mg/kg/day and an LEL (rat [3]; systemic / in life observation / clinical signs / salivation + systemic / in life observation / food consumption / food consumption) of 30 mg/kg/day. The LOAEL (rat [4]; [18]) was over 150 mg/kg/day, the NOAEL (rat [4]; [18]) was at least 150 mg/kg/day and the LEL (rat [4]; [19]) was 10 mg/kg/day. It also gave an NEL (rat [4]; [19]) of under 10 mg/kg/day, an LEL (dog [5]) of 2 mg/kg/day and an LOAEL (dog [5]) of over 30 mg/kg/day. It also gave an NEL (dog [5]) of under 2 mg/kg/day, an NOAEL (dog [5]) of at least 30 mg/kg/day and an LEL (rat [6]) of 25 mg/kg/day. For the same compound, the LOAEL (rat [6]) was over 50 mg/kg/day, the NOAEL (rat [6]) was at least 50 mg/kg/day and the LOAEL (rat [7]; [20]) was over 300 mg/kg/day. The NOAEL (rat [7]; [20]) was at least 300 mg/kg/day, the LEL (rat [7]; [21]) was 10 mg/kg/day and the NEL (rat [7]; [21]) was under 10 mg/kg/day. For the same compound, the LEL (rat [8]; [22]) was 30 mg/kg/day, the LOAEL (rat [8]; [22]) was over 60 mg/kg/day and the NEL (rat [8]; [22]) was 10 mg/kg/day. For the same compound, the NOAEL (rat [8]; [22]) was at least 60 mg/kg/day, the LOAEL (rat [8]; [23]) was over 60 mg/kg/day and the NOAEL (rat [8]; [23]) was at least 60 mg/kg/day. For the same compound, the LEL (rat [8]; [24]) was 10 mg/kg/day, the NEL (rat [8]; [24]) was under 10 mg/kg/day and the LOAEL (rabbit [9]; [25]) was over 100 mg/kg/day. It also gave an NOAEL (rabbit [9]; [25]) of at least 100 mg/kg/day, an LEL (rabbit [9]; [26]) of 10 mg/kg/day and an NEL (rabbit [9]; [26]) of under 10 mg/kg/day. The LEL (rabbit [10]; systemic / in life observation / clinical signs / dialated pupils) was 10 mg/kg/day, the LOAEL (rabbit [10]; [27]) was over 30 mg/kg/day and the NOAEL (rabbit [10]; [27]) was at least 30 mg/kg/day.

`COCCOC[C@H](CC1(C(=O)NC2CCC(C(=O)O)CC2)CCCC1)C(=O)Oc1ccc2c(c1)CCC2` (some centres not stated) [Candoxatril] was tested, and the LOAEL (rat [11]; [28]) was over 1200 mg/kg/day, the NOAEL (rat [11]; [28]) was at least 1200 mg/kg/day and the NEL (rat [11]; systemic / in life observation / clinical signs / hyperactivity) was under 120 mg/kg/day. It also gave an LEL (rabbit [12]; [29]) of 1000 mg/kg/day, an LOAEL (rabbit [12]; [29]) of over 1000 mg/kg/day and an NOAEL (rabbit [12]; [29]) of at least 1000 mg/kg/day. The LEL (rabbit [12]; [30]) was 1000 mg/kg/day, the LOAEL (rabbit [12]; [30]) was over 1000 mg/kg/day and the NEL (rabbit [12]; [30]) was 250 mg/kg/day. It also gave an NOAEL (rabbit [12]; [30]) of at least 1000 mg/kg/day.
